From US20030087906A1, “NITROGEN SUBSTITUTED BIARYL PURINE DERIVATIVES AS POTENT ANTIPROLIFERATIVE AGENTS” (priority 2001, published 2003)
pIC50: −log10 of the molar value. Several values for one entry are separate records, joined by “and”; a condition that tells them apart may be missing. Identical values can stand only once.

Assays:
[1] = test system: HeLa S-3 cells; assay: Inhibition of cell growth of HeLa cells (SRB); format: cell-based, human; settings: 2 days of treatment, replicate experiments
Protocol: Growth inhibition (GI50) values were measured with HeLa S-3 cells selected for growth on plastic. […] One day later, a control plate was fixed by addition of TCA to 5%. After five rinses with tap water the plate was air dried and stored at 4° C. Test compounds were added to the remaining plates at 10-fold dilutions between 0.01 and 100 μM. Two days later all plates were fixed as described above. Cells were then stained by the addition of 100 μl per well of 0.4% sulforhodamine B (SRB) in 1% acetic acid for 30 min at 4° C. Wells were then quickly rinsed 5×with acetic acid (1%) and allowed to air dry. The SRB was then solubilized by the addition of 100 μl per well of unbuffered 10 mM Tris base. Dye was quantified by measuring absorbance at 490 nm on a Molecular Devices kinetic microplate reader. Growth at each inhibitor concentration relative to the untreated control was calculated according to the following equation: percent growth=100×(T−To)/(C−To), where T was the average optical density (OD) of the test wells after 2 days of treatment, To was the average OD of the wells in the control plate on day 0 and C was the average OD of untreated wells. Plots of percent growth versus inhibitor concentration were used to determine the GI50.

[2] = target: CyclinA/cdk2 (Homo sapiens, UniProt P24941); assay: CyclinA/cdk2 protein kinase assay (histone H1 phosphorylation); settings: IC50 CyclinA/cdk2, complex immunopurified from HeLa cells; 15 μM ATP; replicate experiments
[3] = target: CyclinE/cdk2 (Homo sapiens, UniProt P24941); assay: CyclinE/cdk2 protein kinase assay (histone H1 phosphorylation); settings: IC50 CyclinE/cdk2, complex immunopurified from HeLa cells; 15 μM ATP; replicate experiments

Row | Structure (SMILES) | GI50 ([1]; Homo sapiens, HeLa S3, 48 h) [nM] | GI50 [1] | other results
1 | CCCN(CCC)CCNc1nc(NCc2ccc(-c3ccccc3)cc2)c2ncn(C(C)C)c2n1 [Compound 210] | 3000 | – | –
2 | CN1CC[C@H](c2c(O)cc(O)c3c(=O)cc(-c4ccccc4Cl)oc23)[C@H](O)C1 [Flavopiridol, reference compound] | 180 | – | –
3 | CC(C)n1cnc2c(NCc3cccc(-c4ccsc4)c3)nc(N[C@H]3CC[C@H](NC(=O)OC(C)(C)C)CC3)nc21 [Compound 130] | – | > 10000 nM | –
4 | CC[C@H](CO)Nc1nc(NCc2ccc(-c3ccc(C(O)CO)cc3)cc2)c2ncn(C(C)C)c2n1 (stereo partly shown) [Compound 34] | 7000 | – | –
5 | CC(C)n1cnc2c(NCc3ccc(-c4cccc(F)c4)nc3)nc(N[C@H]3CC[C@H](NC(=O)CNC(=O)OC(C)(C)C)CC3)nc21 [Compound 232] | 300 | – | –
6 | CCCNCCCCNc1nc(NCc2ccc(-c3ccccc3)cc2)c2ncn(C(C)C)c2n1 [Compound 215] | 2000 | – | –
7 | CC(=O)N[C@H]1CC[C@H](Nc2nc(NCCOc3ccc(-c4ccccc4)cc3)c3ncn(C(C)C)c3n2)CC1 [Compound 249] | > 10000 | – | –
8 | CCCN[C@H]1CC[C@H](Nc2nc(NCc3ccc(-c4cc(C)cc(C)c4)cc3)c3ncn(C(C)C)c3n2)CC1 [Compound 151] | 800 | 600 nM | –
9 | COC(=O)N[C@H]1CC[C@H](Nc2nc(NCc3ccc(-c4ccccc4)cc3)c3ncn(C(C)C)c3n2)CC1 [Compound 259] | – | 300 nM and 700 nM | –
10 | CCN(C(C)=O)[C@H]1CC[C@H](Nc2nc(NCc3ccc(-c4ccccc4)cc3)c3ncn(C(C)C)c3n2)CC1 [Compound 267] | – | 800 nM and 600 nM | –
11 | CC(C)n1cnc2c(NCc3ccc(-c4cccc(F)c4)nc3)nc(N[C@H]3CC[C@H](NC(=O)[C@H](C)N)CC3)nc21 [Compound 231] | 40 | – | –
12 | CC(=O)NCCCCNc1nc(NCc2ccc(-c3ccccc3)cc2)c2ncn(C(C)C)c2n1 [Compound 214] | 5000 | – | –
13 | CC(=O)N[C@H]1CC[C@H](Nc2nc(NCc3ccc(-c4ccc(F)cc4)cc3)c3ncn(C(C)C)c3n2)CC1 [Compound 102] | – | – | pIC50 [2]: < 5.00; pIC50 [3]: 5.40
14 | CC(C)n1cnc2c(NCc3ccc(-c4cccc(Cl)c4)cc3)nc(N[C@H]3CC[C@H](N)CC3)nc21 [Compound 109] | – | – | pIC50 [2]: 6.22; pIC50 [3]: 7.00
15 | CC(C)n1cnc2c(NCc3ccc(-c4cccc(F)c4)nc3)nc(N[C@H]3CC[C@H](NC(=O)CN)CC3)nc21 [Compound 233] | 500 | – | –
16 | CC(=O)N[C@H]1CC[C@H](Nc2nc(NCc3ccc(-c4ccco4)nc3)c3ncn(C(C)C)c3n2)CC1 [Compound 206] | – | 200 nM | –

Row | Structure (SMILES) | GI50 ([1]; Homo sapiens, HeLa S3, 48 h) [nM] | GI50 [1] | other results
17 | CC(C)n1cnc2c(NCCc3ccc(-c4ccsc4)cc3)nc(N[C@H]3CC[C@H](NC(=O)OC(C)(C)C)CC3)nc21 [Compound 242] | – | > 10000 nM | –
18 | CC(=O)N[C@H]1CC[C@H](Nc2nc(NCc3ccc(-c4cccc(F)c4)nc3)c3ncn(C(C)C)c3n2)CC1 [Compound 188] | – | 200 nM and 70 nM | –
19 | CCCN[C@H]1CC[C@H](Nc2nc(NCCOc3ccc(-c4ccccc4)cc3)c3ncn(C(C)C)c3n2)CC1 [Compound 250] | – | 6000 nM | –
20 | CC(C)n1cnc2c(NCc3ccc(-c4ccccc4)cc3)nc(N[C@H]3CC[C@H](NC(=O)C4CC4)CC3)nc21 [Compound 261] | – | 300 nM | –
21 | CCCN[C@H]1CC[C@H](Nc2nc(NCc3ccc(-c4cc(OC)ccc4OC)cc3)c3ncn(C(C)C)c3n2)CC1 [Compound 155] | 500 | 800 nM | –
22 | CC(C)n1cnc2c(NCc3ccc(-c4ccccc4)cc3)nc(NC[C@H](C)N)nc21 [Compound 107] | – | – | pIC50 [2]: 6.00 and 5.40; pIC50 [3]: 5.70
23 | CC[C@H](CO)Nc1nc(NCc2ccc(-c3cccc(N)c3)cc2)c2ncn(C(C)C)c2n1 [Compound 36] | 20000 | – | –
24 | COc1cccc(-c2ccc(CNc3nc(N[C@H]4CC[C@H](NC(C)=O)CC4)nc4c3ncn4C(C)C)cc2)c1 [Compound 180] | – | 300 nM | –
25 | CC(=O)N[C@H]1CC[C@H](Nc2nc(NCCc3ccc(-c4ccccc4)cc3)c3ncn(C(C)C)c3n2)CC1 [Compound 240] | – | 8000 nM | –
26 | CC(C)n1cnc2c(NCc3cccc(-c4ccccc4)c3)nc(N[C@H]3CC[C@H](NC(=O)OC(C)(C)C)CC3)nc21 [Compound 133] | – | > 10000 nM | –
27 | CC(C)n1cnc2c(NCc3ccc(I)cc3)nc(N[C@H]3CC[C@H](N)CC3)nc21 [Compound 11] | – | – | pIC50 [2]: 6.70; pIC50 [3]: 7.15
28 | CC(Nc1nc(N[C@H]2CC[C@H](N)CC2)nc2c1ncn2C(C)C)c1ccc(-c2ccsc2)cc1 (stereo partly shown) [Compound 257] | 3000 | – | –
29 | CC(C)n1cnc2c(NCc3ccc(-c4ccccc4)cc3)nc(N[C@H]3CC[C@H](N4C(=O)CCC4=O)CC3)nc21 [Compound 262] | – | 300 nM and 200 nM and 500 nM | –
30 | CCCN(CCC)[C@H]1CC[C@H](Nc2nc(NCc3ccc(-c4cc(C)cc(C)c4)cc3)c3ncn(C(C)C)c3n2)CC1 [Compound 152] | – | 700 nM and 300 nM | –
31 | CC(C)n1cnc2c(NCc3ccc(-c4cccc(F)c4)nc3)nc(N[C@H]3CC[C@H](NC(=O)[C@H](C)NC(=O)OC(C)(C)C)CC3)nc21 [Compound 230] | 300 | – | –
32 | CCCNCCNc1nc(NCc2ccc(-c3ccccc3)cc2)c2ncn(C(C)C)c2n1 [Compound 209] | 2000 | – | –

The next lines start with results.

Row | GI50 ([1]; Homo sapiens, HeLa S3, 48 h) [nM] | GI50 [1] | Structure (SMILES) | other results
33 | 200 | – | Cc1csc(-c2ccc(CNc3nc(N[C@H]4CC[C@H](N)CC4)nc4c3ncn4C(C)C)cc2)c1 [Compound 160] | –
34 | 200 | – | CC(C)n1cnc2c(NCc3ccc(-c4ccoc4)cc3)nc(N[C@H]3CC[C@H](N)CC3)nc21 [Compound 164] | –
35 | – | 200 nM | CC(=O)N[C@H]1CC[C@H](Nc2nc(NCc3ccc(-c4cc(C)cs4)cc3)c3ncn(C(C)C)c3n2)CC1 [Compound 161] | –
36 | 500 | – | Cc1ccc(-c2ccc(CNc3nc(N[C@H]4CC[C@H](N)CC4)nc4c3ncn4C(C)C)cc2)s1 [Compound 157] | –
37 | 300 | – | CC(=O)N[C@H]1CC[C@H](Nc2nc(NCc3ccc(-c4ccc(Cl)s4)cc3)c3ncn(C(C)C)c3n2)CC1 [Compound 265] | –
38 | 6000 | – | CC(C)n1cnc2c(NCCc3ccc(-c4ccccc4)cc3)nc(N[C@H]3CC[C@H](N)CC3)nc21 [Compound 239] | –
39 | 40 | – | CC(C)n1cnc2c(NCc3ccc(-c4ccco4)cc3)nc(N[C@H]3CC[C@H](N)CC3)nc21 [Compound 181] | –
40 | 300 | 500 nM | CC(C)n1cnc2c(NCc3ccc(-c4ccc(Cl)s4)cc3)nc(N[C@H]3CC[C@H](N)CC3)nc21 [Compound 264] | –
41 | 50 | 30 nM | CC(C)n1cnc2c(NCc3ccc(-c4cccc(F)c4)nc3)nc(N[C@H]3CC[C@H](N)CC3)nc21 [Compound 187] | –
42 | 300 | – | CC(=O)N[C@H]1CC[C@H](Nc2nc(NCc3ccc(-c4ccco4)cc3)c3ncn(C(C)C)c3n2)CC1 [Compound 182] | –
43 | 200 | – | CCCN[C@H]1CC[C@H](Nc2nc(NCc3ccc(-c4cc(C)cs4)cc3)c3ncn(C(C)C)c3n2)CC1 [Compound 162] | –
44 | – | 600 nM | CC(=O)N[C@H]1CC[C@H](Nc2nc(NCc3ccc(-c4ccc(C)s4)cc3)c3ncn(C(C)C)c3n2)CC1 [Compound 158] | –
45 | – | 200 nM and 100 nM | CC(=O)N[C@H]1CC[C@H](Nc2nc(NCc3ccc(-c4ccoc4)cc3)c3ncn(C(C)C)c3n2)CC1 [Compound 165] | –
46 | – | 200 nM and 90 nM | CC(C)n1cnc2c(NCc3ccc(-c4cccs4)nc3)nc(N[C@H]3CC[C@H](N)CC3)nc21 [Compound 199] | –
47 | – | 200 nM | CC(=O)N[C@H]1CC[C@H](Nc2nc(NCc3ccc(-c4cccc(C)c4)cc3)c3ncn(C(C)C)c3n2)CC1 [Compound 178] | –
